Molecular target: T1, Kinesin-like protein KIF11 (Homo sapiens, UniProt P52732)
T1 sequence (P52732 whole entry): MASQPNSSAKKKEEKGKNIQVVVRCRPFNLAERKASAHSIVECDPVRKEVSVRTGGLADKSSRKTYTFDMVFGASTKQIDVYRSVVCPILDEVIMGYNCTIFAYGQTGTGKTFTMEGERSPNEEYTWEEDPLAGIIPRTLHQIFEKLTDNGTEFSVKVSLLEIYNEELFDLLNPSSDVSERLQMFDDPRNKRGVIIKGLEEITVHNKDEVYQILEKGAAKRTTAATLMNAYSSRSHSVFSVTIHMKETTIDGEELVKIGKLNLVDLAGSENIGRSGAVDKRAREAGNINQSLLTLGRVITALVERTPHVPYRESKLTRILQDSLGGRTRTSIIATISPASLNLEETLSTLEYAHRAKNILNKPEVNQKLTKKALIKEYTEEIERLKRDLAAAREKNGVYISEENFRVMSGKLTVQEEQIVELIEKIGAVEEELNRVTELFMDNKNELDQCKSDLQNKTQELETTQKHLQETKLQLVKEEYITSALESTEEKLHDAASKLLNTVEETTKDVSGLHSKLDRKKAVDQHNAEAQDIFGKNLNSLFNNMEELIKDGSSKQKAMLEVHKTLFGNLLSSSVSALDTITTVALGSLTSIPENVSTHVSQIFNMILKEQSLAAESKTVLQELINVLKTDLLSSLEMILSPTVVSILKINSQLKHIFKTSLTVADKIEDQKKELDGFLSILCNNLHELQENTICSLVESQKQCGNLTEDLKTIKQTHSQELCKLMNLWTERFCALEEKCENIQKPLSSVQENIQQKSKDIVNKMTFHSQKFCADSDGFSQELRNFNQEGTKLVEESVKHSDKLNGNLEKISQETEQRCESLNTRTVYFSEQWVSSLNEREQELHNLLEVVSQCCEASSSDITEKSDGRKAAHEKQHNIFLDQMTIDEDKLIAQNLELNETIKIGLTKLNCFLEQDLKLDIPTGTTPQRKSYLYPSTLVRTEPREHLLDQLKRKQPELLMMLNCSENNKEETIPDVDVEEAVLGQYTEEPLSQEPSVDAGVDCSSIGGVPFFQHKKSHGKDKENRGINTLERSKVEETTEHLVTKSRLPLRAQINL
Assay: Malachite Green Assay
Conditions: pH 6.8; 25 °C
Protocol: The ATPase activity of the Eg5 motor domain was measured by using the malachite green assay.

| Structure (SMILES) | IC50 |
| --- | --- |
| CCOC(=O)C1C(C)=NC(=S)N[C@H]1c1cccc(O)c1 (stereo not given in full) [Monastrol] | 20.7 µM |
| Oc1cccc(C2NC(=S)Nc3ccccc32)c1 (stereo not given) [VS-12] | 7.6 µM |
| Oc1cccc(C2NC(=S)Nc3ccc(Br)cc32)c1 (stereo not given) [VS-17] | 5.75 µM |
| Oc1cccc(C2NC(=S)Nc3ccc(Cl)cc32)c1 (stereo not given) [VS-42] | 5.77 µM |
| Oc1cccc(C2NC(=S)Nc3cc(F)ccc32)c1 (stereo not given) [VS-54] | 1.81 µM |
| Oc1cccc(C2NC(=S)Nc3ccc(F)cc32)c1 (stereo not given) [VS-77] | 8.04 µM |
| Oc1cccc(C2NC(=S)Nc3cccc(F)c32)c1 (stereo not given) [VS-83] | 1.17 µM |
| Oc1cccc(C2NC(=S)Nc3cc(F)c(F)cc32)c1 (stereo not given) [VS-87] | 2.74 µM |
| Cc1ccc2c(c1)NC(=S)NC2c1cccc(O)c1 (stereo not given) [VS-91] | 7.59 µM |
| Cc1ccc2c(c1)C(c1cccc(O)c1)NC(=S)N2 (stereo not given) [VS-94] | 2.73 µM |

— BindingDB's records for doi:10.1002/cbic.200500168 (University of Leipzig, 2005)
